Test results reported in ChEMBL document CHEMBL5131556, “Ibogaine and Their Analogs as Therapeutics for Neurological and Psychiatric Disorders” (ACS Med Chem Lett, 2022).

Tests used:
[1] = molecular target: Sodium-dependent serotonin transporter (Homo sapiens, UniProt P31645); experiment: Inhibition of human SERT transfected in HEK cells using APP+ as fluorescent substrate preincubated for 1 hr followed by substrate addition and measured after 30 mins by fluorescence plate reader assay; format: cell-based
[2] = molecular target: Synaptic vesicular amine transporter (Rattus norvegicus, UniProt Q01827); experiment: Inhibition of rat VMAT2 transfected in HEK cells using FFN206 as fluorescent substrate preincubated for 1 hr followed by substrate addition and measured after 30 mins by fluorescence plate reader assay; format: cell-based
Synaptic vesicular amine transporter, sequence (Q01827 whole entry): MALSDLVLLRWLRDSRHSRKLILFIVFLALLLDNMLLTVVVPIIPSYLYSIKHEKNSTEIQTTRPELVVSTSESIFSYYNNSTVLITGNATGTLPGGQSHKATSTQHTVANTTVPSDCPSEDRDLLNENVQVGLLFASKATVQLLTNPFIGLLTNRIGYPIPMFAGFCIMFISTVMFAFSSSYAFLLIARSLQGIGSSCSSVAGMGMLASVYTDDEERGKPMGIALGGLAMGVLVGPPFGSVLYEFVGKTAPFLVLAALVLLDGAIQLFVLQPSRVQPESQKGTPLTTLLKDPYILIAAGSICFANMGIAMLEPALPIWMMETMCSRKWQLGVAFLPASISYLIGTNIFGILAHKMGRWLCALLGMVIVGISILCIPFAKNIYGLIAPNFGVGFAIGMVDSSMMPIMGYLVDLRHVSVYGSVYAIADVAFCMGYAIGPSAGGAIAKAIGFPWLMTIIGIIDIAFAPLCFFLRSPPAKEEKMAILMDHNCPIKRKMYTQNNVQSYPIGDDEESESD

Sodium-dependent serotonin transporter, sequence (P31645 whole entry): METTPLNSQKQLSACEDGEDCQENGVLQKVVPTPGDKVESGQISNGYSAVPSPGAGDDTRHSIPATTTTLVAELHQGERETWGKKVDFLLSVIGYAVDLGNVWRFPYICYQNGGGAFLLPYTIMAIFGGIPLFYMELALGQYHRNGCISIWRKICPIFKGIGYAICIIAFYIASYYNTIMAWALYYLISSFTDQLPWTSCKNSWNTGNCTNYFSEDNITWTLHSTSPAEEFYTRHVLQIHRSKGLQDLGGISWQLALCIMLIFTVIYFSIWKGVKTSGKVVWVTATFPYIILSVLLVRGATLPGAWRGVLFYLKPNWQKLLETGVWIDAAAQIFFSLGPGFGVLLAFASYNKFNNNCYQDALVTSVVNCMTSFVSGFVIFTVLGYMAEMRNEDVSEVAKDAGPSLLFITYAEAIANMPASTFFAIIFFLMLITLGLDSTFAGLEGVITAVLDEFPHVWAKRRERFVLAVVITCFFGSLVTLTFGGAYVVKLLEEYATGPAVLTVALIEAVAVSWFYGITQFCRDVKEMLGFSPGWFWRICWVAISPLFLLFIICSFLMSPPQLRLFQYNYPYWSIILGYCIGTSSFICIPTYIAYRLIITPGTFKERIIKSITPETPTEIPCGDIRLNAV

Row | Structure (SMILES) | IC50 [1] [nM] | IC50 [2] [nM]
1 | CCc1ccc2c(c1)c1c(n2C)[C@@H]2C[C@H]3C[C@H](CC)[C@@H]2N(CC1)C3 | 910 | 750
2 | CCOc1ccc2[nH]c3c(c2c1)CCN1C[C@@H]2C[C@H](CC)[C@H]1[C@H]3C2 | 9000 | 80
3 | CC[C@H]1C[C@@H]2C[C@H]3c4c(c5ccccc5n4C)CCN(C2)[C@@H]13 | 80 | 1500
4 | CC[C@H]1C[C@@H]2CC3c4[nH]c5ccc(O)cc5c4CCN(C2)[C@H]31 |  | 570
5 | CC[C@H]1C[C@@H]2C[C@H]3c4c(c5cc(O)ccc5n4C)CCN(C2)[C@@H]13 | 59 | 170
6 | CC[C@H]1C[C@@H]2C[C@H]3c4c(c5cc(O)ccc5n4CC)CCN(C2)[C@@H]13 | 1900 | 70
7 | CC[C@H]1C[C@@H]2C[C@H]3c4[nH]c5ccc(OC)c(Br)c5c4CCN(C2)[C@@H]13 | 670 | 4900
8 | CC[C@H]1C[C@@H]2C[C@H]3c4[nH]c5ccc(OC)cc5c4CCN(C2)[C@@H]13 |  | 4000
9 | CC[C@H]1C[C@@H]2C[C@H]3c4c(c5cc(OC)ccc5n4C)CCN(C2)[C@@H]13 | 1500 | 740
10 | CC[C@H]1C[C@@H]2C[C@H]3c4c(c5cc(C#N)ccc5n4C)CCN(C2)[C@@H]13 | 5.1 | 440
11 | CC[C@H]1C[C@@H]2C[C@H]3c4[nH]c5ccccc5c4CCN(C2)[C@@H]13 | 330 | 3000
12 | CC[C@H]1C[C@@H]2C[C@H]3c4[nH]c5ccc(C#N)cc5c4CCN(C2)[C@@H]13 | 26 | 3300
